Experimental data: PMC9706657 (2022)

Columns and labels:
Assay in all cases: ITC
Conditions in all cases: Na+ 100 mM (NaCl), Mg2+ 5 mM (MgCl2); 5 mM MES, pH 5.5; aptamer on Au nanoparticle (20 µM aptananozyme in cell)
[1] = tested on: aptananozyme IV ((4)-modified pA-AuNPs) (DNA, aptamer) GTAACAACAGTCAAAAAAAAAAAAAAAAAAAAGACTGTTGTTACTGTATGTACGACGCCAGTTTGAAGGTTCGTTCGCAGGTGTGGAGTGACGTCG
[2] = tested on: aptananozyme III ((3)-modified pA-AuNPs) (DNA, aptamer) GTAACAACAGTCAAAAAAAAAAAAAAAAAAAAGACTGTTGTTACTGTACGACGCCAGTTTGAAGGTTCGTTCGCAGGTGTGGAGTGACGTCG
[3] = tested on: aptananozyme II ((2)-modified pA-AuNPs) (DNA, aptamer) GTAACAACAGTCAAAAAAAAAAAAAAAAAAAAGACTGTTGTTACCGACGCCAGTTTGAAGGTTCGTTCGCAGGTGTGGAGTGACGTCG
[4] = tested on: aptananozyme I ((1)-modified pA-AuNPs) (DNA, aptamer) CGACGCCAGTTTGAAGGTTCGTTCGCAGGTGTGGAGTGACGTCGGTAACAACAGTCAAAAAAAAAAAAAAAAAAAAGACTGTTGTTAC
[5] = tested on: aptananozyme V ((5)-modified pA-AuNPs) (DNA, aptamer) GTAACAACAGTCAAAAAAAAAAAAAAAAAAAAGACTGTTGTTACTGTATGTATGTACGACGCCAGTTTGAAGGTTCGTTCGCAGGTGTGGAGTGACGTCG

Kd [1] [µM] | Kd [2] [µM] | Kd [3] [µM] | Kd [4] [µM] | Kd [5] [µM] | SMILES
0.76 ± 0.03 | 0.95 ± 0.04 | 1.20 ± 0.06 | 1.65 ± 0.03 | 0.93 ± 0.05 | NCCc1ccc(O)c(O)c1
4.2 | – | – | – | – | N[C@@H](Cc1ccc(O)c(O)c1)C(=O)O
11.3 | – | – | – | – | N[C@H](Cc1ccc(O)c(O)c1)C(=O)O
